# Source: patent publication US20030162723A1, “Supplementation of equine feedstuffs” (priority 2000, published 2003)
# “Also recorded” adds a separate entry of the source.
# Legend:
# [1] = set-up: species or system horse; settings: in vivo
# Source text: Six stabled Thoroughbred horses (2 mares, 4 geldings; aged 5-9 years), were maintained on hay and mixed feed for a minimum of two weeks before the start of the study. Horses were fed at 8 am and 4 pm. The mixed feed was a mix of cereal sources, fibre sources and protein sources with added vitamins and minerals. The ingredients included, in descending order of inclusion, enriched fibre pellets, rolled oats, soya hull pellets, flaked maise, flaked barley, flaked peas, molgio, full fat soya, vegetable oils, lucerne (alfalfa), calcium carbonate, dicalcium phosphate, salt, lysine, magnesium phosphate and zinc sulphate. Analysis: oil 8%, protein 12%, fibre 11%, ash 7.5%.
# Within each part of the study, the order of the feeds was randomised between horses using a Latin Square design. The study comprised four parts:
# Part 1: Acute plasma glutamine response to a single feed of molassed sugar beet (mSB), naked oats (nO) and mixed feed (M). […] Total plasma proteins were measured as an indication of plasma volume changes related to the hay or test feeds. […]
# Plasma was deproteinised with an equal volume of perchloric acid and neutralised with KHCO3. […] The method was a consolidation of those by Lund (1974), and, Beutler and Michal (1974), creating a one-step enzymic method applied to a microplate reader using only 20 μl of sample. […]
# [2] = Plasma ammonia after feeding molassed sugar beet supplemented with L-glutamine (dry-strip analyser); assay type: in vivo, horse; settings: glutamine supplementation, 60 mg/kg bwt with mSB
# Experimental: The mSB, hay and water were provided as in Part 1.
# Blood samples were drawn through an indwelling jugular catheter into tubes containing lithium heparin (on ice). In Part 1 samples were taken pre and at 0.5, 1, 1.5, 2, 3, 4, 6 and 8 hours post feed. In Parts 2, 3 and 4 samples were taken pre and at 0.25, 0.5, 0.75, 1, 1.5, 2, 3, 4, 6 and 8 hours. Samples were centrifuged, the plasma harvested, divided into aliquots and stored at −80° C.
# Total plasma protein content was estimated using a refractometer (Goldberg Refractometer).
structure (smiles),measurement,setting,value
NC(=O)CC[C@H](N)C(=O)O [L-glutamine],response (peak concentration and AUC) compared with the peptide,[1],greater response
same,effect on plasma ammonia concentration,[2],unaffected; also recorded: Neither did oral ingestion of glutamine have any effect
same,effect on plasma ammonia concentration,[2]; listed as G,no significant increase
